Assay results taken from US20100022531A1, “NOVEL COMPOUNDS AS P2X7 MODULATORS AND USES THEREOF” (RENOVIS, INC., priority 2005, published 2010).

Target: T1, P2X7 receptor (Homo sapiens, UniProt Q99572)
T1 construct: host or cells: THP-1 cells differentiated with LPS and IFN-γ
T1 sequence (Q99572 1-595): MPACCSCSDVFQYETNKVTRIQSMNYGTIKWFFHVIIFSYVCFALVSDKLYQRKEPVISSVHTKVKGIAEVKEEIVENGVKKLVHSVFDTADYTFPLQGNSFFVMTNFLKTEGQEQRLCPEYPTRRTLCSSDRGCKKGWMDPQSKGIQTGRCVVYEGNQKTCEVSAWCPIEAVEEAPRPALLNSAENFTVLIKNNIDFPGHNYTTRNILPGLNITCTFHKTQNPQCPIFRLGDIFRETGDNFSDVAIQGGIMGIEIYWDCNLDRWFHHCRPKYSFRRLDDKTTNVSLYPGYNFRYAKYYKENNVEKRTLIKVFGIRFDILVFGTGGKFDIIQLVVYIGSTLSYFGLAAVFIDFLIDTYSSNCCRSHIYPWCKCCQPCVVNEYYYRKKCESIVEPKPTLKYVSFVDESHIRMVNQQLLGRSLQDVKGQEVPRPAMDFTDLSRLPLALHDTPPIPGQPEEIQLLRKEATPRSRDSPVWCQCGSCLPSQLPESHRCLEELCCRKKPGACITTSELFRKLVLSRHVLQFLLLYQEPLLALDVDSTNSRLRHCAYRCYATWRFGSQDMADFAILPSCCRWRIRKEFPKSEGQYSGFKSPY
Assay: Alternate method for IL-1β release assay (differentiated THP-1 cells, BzATP-stimulated, ELISA)
Format: cell-based
Conditions: P2X7; for inhibition at 0.1 µM: 0.1 μM compound (symbols + to ++++), read-out: IL-1β % inhib @ 0.1 μM; for inhibition at 0.03 µM: at 0.03 μM (asterisk symbols), read-out: IL-1β % inhib @ 0.3 μM or @ 0.03 μM
In short: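 After 16 h differentiation with 100 ng/mL LPS and 100 ng/mL IFN-γ plus a further 2 h LPS priming, THP-1 cells were pretreated 30 min with compound, then stimulated with 250 uM BzATP (final) for 45 min. Supernatant IL-1β measured by ELISA; percent inhibition from background-adjusted levels versus untreated cells.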

| Compound | inhibition at 0.1 µM | inhibition at 0.03 µM |
| --- | --- | --- |
| O=C(c1cccnc1)N1CCc2c(ncnc2NCC23CC4CC(CC(O)(C4)C2)C3)C1 [Compound 350, {4-[(3-Hydroxy-adamantan-1-ylmethyl)-amino]-5,8-dihydro-6H-pyrido[3,4-d]pyrimidin-7-yl}-pyridin-3-yl-methanone] | 25 to 50% | – |
| CC(C)[C@H](NC(=O)OC(C)(C)C)C(=O)N1CCc2c(ncnc2NCC23CC4CC(CC(C4)C2)C3)C1 [Compound 351] | > 75% | – |
| CC(C)(C)OC(=O)NCC(=O)N1CCc2c(ncnc2NCC(O)C23CC4CC(CC(C4)C2)C3)C1 (centres unmarked) [Compound 707, {2-[4-(2-Adamantan-1-yl-2-hydroxy-ethylamino)-5,8-dihydro-6H-pyrido[3,4d]pyrimidin-7-yl]-2-oxo-ethyl}-carbamic acid tert-butyl ester] | – | 50 to 75% |
| C[C@H](NC(=O)OC(C)(C)C)C(=O)N1CCc2c(ncnc2NCC(O)C23CC4CC(CC(C4)C2)C3)C1 (stereo partly drawn) [Compound 708, {(S)-2-[4-(2-Adamantan-1-yl-2-hydroxy-ethylamino)-5,8-dihydro-6H-pyrido[3,4-d]pyrimidin-7-yl]-1-methyl-2-oxo-ethyl}-carbamic acid tert-butyl ester] | – | 50 to 75% |
| CC(C)(C)OC(=O)N[C@@H](Cc1ccccc1)C(=O)N1CCc2c(ncnc2NCC(O)C23CC4CC(CC(C4)C2)C3)C1 (stereo partly drawn) [Compound 709, {(S)-2-[4-(2-Adamantan-1-yl-2-hydroxy-ethylamino)-5,8-dihydro-6H-pyrido[3,4-d]pyrimidin-7-yl]-1-benzyl-2-oxo-ethyl}-carbamic acid tert-butyl ester] | – | 0 to 25% |
| C[C@@H](NC(=O)OC(C)(C)C)C(=O)N1CCc2c(ncnc2NCC(O)C23CC4CC(CC(C4)C2)C3)C1 (stereo partly drawn) [Compound 710, {(R)-2-[4-(2-Adamantan-1-yl-2-hydroxy-ethylamino)-5,8-dihydro-6H-pyrido[3,4-d]pyrimidin-7-yl]-1-methyl-2-oxo-ethyl}-carbamic acid tert-butyl ester] | – | 0 to 25% |
| CC(C)(C)OC(=O)N[C@H](Cc1ccccc1)C(=O)N1CCc2c(ncnc2NCC(O)C23CC4CC(CC(C4)C2)C3)C1 (stereo partly drawn) [Compound 711, {(R)-2-[4-(2-Adamantan-1-yl-2-hydroxy-ethylamino)-5,8-dihydro-6H-pyrido[3,4-d]pyrimidin-7-yl]-1-benzyl-2-oxo-ethyl}-carbamic acid tert-butyl ester] | – | 0 to 25% |
| C[C@H](N)C(=O)N1CCc2c(ncnc2NCC(O)C23CC4CC(CC(C4)C2)C3)C1 (stereo partly drawn) [Compound 713, (S)-1-[4-(2-Adamantan-1-yl-2-hydroxy-ethylamino)-5,8-dihydro-6H-pyrido[3,4-d]pyrimidin-7-yl]-2-amino-propan-1-one] | – | 0 to 25% |
